Test results from patent publication US20090285862A1, “METHODS AND COMPOSITION FOR TREATMENT OF INFLAMMATORY PAIN” (priority 2006, published 2009).
Marks after values point to notes of the source that are not given here.

Assays:
male Wistar rats = experiment: open field activity monitor, testing for sedation; format: in vivo, rat; conditions: for open field activity monitor, mean: male, Wistar, rat, in vivo, ip, 20 min
Description: (§1) Experiments were performed on male Wistar rats (wt 150-220 g). Three series of experiments were performed in an observer blinded fashion with saline (negative) controls and GABAPentin (positive) controls. The investigations were in three stages: • 1. a range of doses of aprepitant (an example of a NK antagonist) given alone and in combination with flupiritine (an example of an inhibitor of neuronal excitation) were tested for sedating effects using the open field activity monitor. In this way it was determined which doses of drug and drug combinations could be used to test for analgesic effects without causing sedation; • 2. a range of doses of aprepitant given alone and in combination with flupirtine were tested for the ability to reverse the allodynia effect causes by intraplantar injection of carrageenan; • 3. a range of doses of aprepitant given alone and in combination with flupirtine were tested for the ability to reverse the allodynia and hyperalgesia caused by streptozotocin-induced diabetic neuropathy.
Individual rats (several rats per treatment group) were placed in an open field activity monitor in which the movement of the rat could be monitored remotely by the frequency and number of interruption of infrared beams directed across the box in a grid. The activity in the monitor was measured for periods of 20 minutes in each rat. This was performed in groups of rats that received (1) control injection of saline, (2) GABAPentin 50 mg/kg as the maximum dose of the drug found previously not to be sedating (drug positive control) administered intraperitoneally, or (3) after pharmacological interventions that involve the administration of aprepitant and flupiritine given at a range of doses alone and in combination. If a rat was sedated by a drug or drug combination, the movements recorded were less. Since rates became habituated to the open field monitor, only one experiment was performed on each rat with this test.
Rats are observed in a commercially available open-field arena in which locomotor and exploratory activity can be monitored in darkness by the breaking of infrared beams arranged in a grid pattern over the entire area (MedAssociates Inc. St. Albans, Vt., USA 05478). The observations are started 5 minutes after the intraperitoneal administration of drugs. The total time of observations in all cases is 20 minutes. In order to avoid habituation to the activity monitor, animals are used once in this test for sedation. Rest time is defined as the time spent with no new infrared beam interruptions.

[1] = tested on: carrageenan-induced allodynia; experiment: carrageenan paw inflammation, reversal of allodynia assessed with Von Frey hairs; format: in vivo, rat; conditions: rats, IP, non-sedating doses, drug administered alone
Description: as §1
Inflammation involves the release of a number of substances into the tissues following injury. These substances including prostaglandins, bradykinin, inflammatory peptides such as substance P and calcitonin gene related peptide and also a number of cytokines. […] Nociceptive thresholds were measured in groups of rats prior to the intraplantar injection. […]

Structure (SMILES)	maximum dose found previously not to be sedating (male Wistar rats; rats, intraperitoneally, found previously)	antinociception, reversal of carrageenan-induced allodynia (Von Frey) [1]	open field activity monitor, mean (male Wistar rats; 6.25 mg/kg)	open field activity monitor, mean (male Wistar rats; 12.5 mg/kg)	open field activity monitor, mean (male Wistar rats; 25 mg/kg)	open field activity monitor, mean (male Wistar rats; 50 mg/kg)	open field activity monitor, mean (male Wistar rats; 100 mg/kg)	dose causing no sedating effects (upper limit) (male Wistar rats; rats, drug given alone)
NCC1(CC(=O)O)CCCCC1 [GABAPentin]	50 mg/kg							
C[C@@H](O[C@H]1OCCN(Cc2n[nH]c(=O)[nH]2)[C@H]1c1ccc(F)cc1)c1cc(C(F)(F)F)cc(C(F)(F)F)c1 [aprepitant]		neither flupirtine or aprepitant given at non-sedating doses caused any antinociception	869.0	915.0*	964.6*	976.6*	1058.2*	≤ 6.25 mg/kg
